Source: patent publication US20110245759A1, “Methods of Treating An Infection with Nitric Oxide” (NITRIC BIOTHERAPEUTICS, INC., priority 2008, published 2011)

How the values were obtained:
mild tinea pedis = test: Single-site clinical trial of gaseous nitric oxide in mild tinea pedis (Example 10); format: in vivo, human; details: 1% gaseous nitric oxide in nitrogen, 10 patients, FIG. 14
Method: To evaluate the effectiveness of gaseous nitric oxide treatment against mild tinea pedis, a single-site clinical trial treating 10 human patients with mild tinea pedis was conducted. […] The foot of each patient was fitted with a flexible, plastic boot-like enclosure that was sealed at the mid-calf (see, for example, FIG. 19) and the foot was bathed with 1% gaseous nitric oxide in nitrogen at a fixed flow of 1 liter per minute for a total of 2 hours divided over 5 treatment days. Gas entered the boot-like enclosure near the toe region with passive diffusion from the enclosure into a well-ventilated examination room. On day 1, patients were treated for 10 minutes. On day 2, patients were treated for 20 minutes. On each of days 3, 4 and 5, patients were treated for 30 minutes. On days 0, 1, 2, 3, 4, 5 and 12, each patient was assessed by a podiatrist blinded to the patient's treatment group and given a clinical symptom severity score ranging from 0 to 64. The clinical symptom severity score is determined by scoring each of 8 categories (i.e., fissures/cracks, yellow crusting (ruptured blisters), maceration (white moist skin), pruritus (itching), scaling, erythema, vesicles/blisters and burning) on an 8-point scale (i.e., 0=absent, 1-2 mild, 3-5 moderate and 6-8 severe). […]

[1] = mixture of 1000 ppm nitric oxide and 21% oxygen; cited from earlier work
[2] = tested on: moderate-severe interdigital and/or moccasin-type tinea pedis; test: Single-site placebo-controlled clinical trial of gaseous nitric oxide in moderate-severe tinea pedis (Example 11); format: in vivo, human; details: 1% nitric oxide
Method: To evaluate the effectiveness of gaseous nitric oxide treatment against moderate-severe interdigital and/or moccasin-type tinea pedis, a single-site, placebo-controlled clinical trial treating≧50 evaluable human patients with moderate-severe interdigital tinea pedis was conducted. […] The foot of each patient was fitted with a flexible, plastic boot-like enclosure that was sealed at the mid-calf (see, for example, FIG. 19) and the foot was bathed with 1% gaseous nitric oxide in nitrogen, or 1% gaseous nitric oxide and 20% oxygen in nitrogen, or placebo (i.e., nitrogen) at a fixed flow of 1 liter per minute for 40 minutes each day for each of three consecutive days, Gas entered the boot-like enclosure near the toe region with passive diffusion from the enclosure into a well-ventilated examination room. Each foot of each patient was fitted with an air-tight, ankle-high covering […] On days 1, 3 and 12, each patient was assessed by a podiatrist blinded to the patient's treatment group and given a clinical symptom severity score ranging from 0 to 64.

[3] = tested on: Human head lice, permethrin(kdr)-resistant SF-HL strain; test: Gas chamber bioassay on human head louse females and eggs (Example 13); details: for lice killed: adult female lice, 1 liter/minute
Method: The ability of nitric oxide or nitric oxide+oxygen to kill human head louse females and eggs was evaluated using gas chamber bioassay.
Human head lice from the permethrin(kdr)-resistant SF-HL strain were used in a nitric oxide gas bioassay to determine louse mortality at different exposure intervals. Adult female lice and aged eggs (6-8 day old) were used in all bioassays. The lice or eggs were placed in the bottom of a sterile disposable Petri dishes (60×20 mm) and left uncovered. The dish with lice or eggs was placed inside a polyethylene bag and the bag was taped shut with HY-TAPE® (HY-TAPE Intl., Patterson, N.Y.) to seal the chamber and to minimize the volume of gas inside the chamber. The treatments used were either nitric oxide, in combination with oxygen mixed in equal parts at a final concentration of 10,000 ppm nitric oxide and 20% oxygen, or a treatment with nitric oxide alone at 10,000 ppm in nitrogen both with a flow rate of 1 liter/minute. The gas tank was connected to the chamber with PVC tubing and plastic connectors. The nitric oxide, in combination with oxygen, was mixed in the tubing before the chamber inlet. The chamber outlet was also connected with PVC tubing and fed to a NO scrubber to trap the NO gas leaving the chamber. Additionally, tufts of human hair (blond and brown) were placed inside the chamber for a 30 minute exposure interval to nitric oxide+oxygen to assess discoloration of the hair for cosmetic purposes.

[4] = tested on: coagulase-negative Staphylococci (CNS); test: Full-thickness porcine wounds infected with bacteria, treated with nitric oxide with or without oxygen (Example 1); format: in vivo, pig
[5] = 30 minute exposure interval, 10,000 ppm nitric oxide

Question: What does the source list for `[N]=O` [nitric oxide]?
Answer: average clinical symptom severity score (0 to 64) during treatment (mild tinea pedis; 1 liter per minute, 2 hours over 5 treatment days): began to decrease on the second day of treatment and continued to decrease until the fifth day of treatment; average clinical symptom severity score on day 12, seven days after the last treatment (mild tinea pedis): remained as low as it was on day 5; time for half of the nitric oxide to react to become nitric dioxide [1]: about 3.5 minutes; clinical symptom severity score on day 3 compared with day 1 ([2]; 40 minutes each day for three days, all patients treated): lower on day 3 than on day 1; clinical symptom severity score on day 12 compared with day 3 ([2]; 40 minutes each day for three days, most patients treated): lower clinical symptom severity score on day 12 than on day 3; patients with interdigital tinea who reached the primary clinical endpoint score of ≦8 ([2]; of the 13 patients with interdigital tinea): 8 patients; ovicidal activity on aged eggs (6-8 days old) [3, 5]: not ovicidal; lice killed ([3]; 10 minute exposure interval, 10,000 ppm nitric oxide): did not kill any; lice killed [3, 5]: did not kill any; egg hatchability ([3]; aged eggs (6-8 days old), 30 minute exposure interval, compared with untreated control eggs): not different from untreated control eggs; amount of total bacteria in biopsies taken from the center of the wounds ([4]; 10,000 ppm nitric oxide, p<0.05, FIG. 10): significant decrease; average decrease of total bacteria in center biopsies, compared with nitric oxide in combination with oxygen ([4]; pig, in vivo): smaller decrease
